What was measured:
[1] = tested on: PCR of whole genomic mycobacterial DNA (Taq polymerase, primers Tb11 and Tb12); test: Reversible inhibition of PCR amplification by DNA binding ligand, product analyzed by gel electrophoresis; type: biochemical
Experimental: AMT is purchased from Sigma Chem. Co., St. Louis, Mo. A stock solution of 5 mg/mL AMT is prepared in de-ionized water. An amplification cocktail is prepared containing 200 picomoles of primers Tb11 and Tb12 (Devallois et al., J. Clin. Microbiol., 35:2669-73 (1997)), 1.25 units of Taq polymerase/100 μL, 200 μM dNTPs and 0.05 mg/mL AMT in a Tris-EDTA buffer, pH 7. A corresponding solution without AMT is prepared as a control.
Amplification is performed in Eppendorf tubes to which are added 0.5 μg of whole genomic mycobacterial DNA in 50 μl of buffer and either 1 μl or 10 μl of the amplification cocktail. Final volume is adjusted to 100 μl with the aqueous buffer solution (without AMT) so that the final concentrations of all PCR components, except AMT, is the same in all replicates. Controls received an amplification cocktail without AMT.
PCR amplification is performed for 45 cycles (92° C.-56° C.-72° C.; denaturation, annealing, extension) and the product analyzed by gel electrophoresis. […]

[2] = tested on: nucleic acids; conditions: Haq et al. 1997; cited from earlier work
[3] = tested on: ligase chain reaction; conditions: Notomi et al. 1998; cited from earlier work
[4] = tested on: transcription mediated amplification reaction; conditions: Della-Latta et al. 1999; cited from earlier work

Cc1oc2c(C)c3oc(=O)cc(C)c3cc2c1CN [AMT, 4′-aminomethyltrioxsalen]
amplification product in PCR ([1]; 0.5 μg/mL AMT, 45 cycles): detectable amplification product is produced
inhibition of the PCR ([1]; 5 μg/mL AMT, 45 cycles): complete inhibition
amount of amplification product ([1]; lower concentrations of AMT: 5 ng/mL and 0.5 ng/mL): continues to increase

CN1CCN(c2ccc3[nH]c(-c4ccc5[nH]c(-c6ccc(O)cc6)nc5c4)nc3c2)CC1 [Hoechst 33258]
affinity for nucleic acid [2]: ≤ 3.2e+08 M⁻¹

O=P(O)(O)O [phosphate ion]
concentration inhibitory for a ligase chain reaction [3]: above 1.2 mM
inhibitory concentration for a transcription mediated reaction [4]: about 0.7 mM
